Consider one compound from patent US20240197715A1, “PHARMACEUTICAL COMBINATIONS AND USES THEREOF” (NOVARTIS AG, priority 2022, published 2024).

The structures appear in SMILES notation.

The test system of this assay is IM95 gastric carcinoma cells. Description: IM95 xenograft efficacy in SCID-BEIGE mice. The assay is classed as in vivo. The conditions noted are these: Example 17. As for the experimental part: All animal studies were conducted in accordance to procedures covered by permit number 2275 issued by the Kantonales Veterinäramt Basel-Stadt and strictly adhered to the Eidgenössisches Tierschutzgesetz and the Eidgenössische Tierschutzverordnung. All animals were allowed to adapt for 7 days and housed in a pathogen-controlled environment (5 mice/Type III cage) with access to food and water ad libitum and were identified with transponders.
Compound A was made-up fresh on a weekly basis and kept at 4° C. and protected from light. It was dissolved in 20% Hydroxypropyl-β-Cyclodextrine (HP-β-CD, #H107-100G, SIGMA) in water (#10977023, Invitrogen) and administered p.o. Irradiation was performed with a XRad320™ from Precision X-Ray and an adjustable X-ray Collimator (#XD1601-0000, Precision X-Ray). Only the tumor implanted subcutaneously by using specific shields (#XD1907-2012, Precision X-Ray). 1.0×10^7 IM95 gastric carcinoma cells were implanted subcutaneously in SCID-BEIGE mice (Charles River, Germany). Treatment was initiated when tumors reached 200 mm^3 volume. Efficacy studies and tumor response were measured as above.

`CCc1c(N2CCN(C(=O)c3ncnc(C)c3O)CC2)c(=O)n2nc(C3=CCOCC3)nc2n1CC(=O)Nc1ccc(C(F)(F)F)cc1Cl` [Compound A]: the “effect on tumor growth” value (Compound A 30 mg/kg p.o. qd single agent) is listed as “stable disease”. Besides, the “duration of response / relapse” value (Compound A 30 mg/kg, 5 Gy irradiation) is “for 21 days but followed by relapse in all tumor-bearing mice”.
